In US20140178479A1, “Concentrated Felbamate Formulations for Parenteral Administration” (PEROSPHERE, INC., priority 2011, published 2014):

Assays:
[1] = cited from earlier work
[2] = supersaturated solution: remaining in solution after heating and cooling; type: physicochemical
Experimental: Felbamate was added at a concentration of up to 20 weight per volume percent to polyethylene glycol 300 and polyethylene glycol 400. Solutions were heated above 70° C. after which the felbamate dissolved.
Felbamate was added at a concentration of up to 10 weight per volume percent in 65 volume per volume percent polyethylene glycol 300, 20 volume per volume percent polyethylene glycol 400, and 15 volume per volume percent propylene glycol. In a separate experiment, felbamate was added at a concentration of up to 10 weight per volume percent in 65 volume per volume percent polyethylene glycol 300, 20 volume per volume percent polyethylene glycol 400, 10 volume per volume percent propylene glycol, and 5 volume per volume percent polyethylene glycol 600.
Solutions were heated above 70° C. after which the felbamate dissolved.
Fluorofelbamate was added at a concentration of 10 weight per volume percent to polyethylene glycol 300. Solutions were heated above approximately 80° C. after which the fluorofelbamate dissolved.

[3] = SEM imaging of precipitated microparticles; type: physicochemical
Experimental: Felbamate was dissolved in dimethyl sulfoxide to create a five weight per volume percent solution. The felbamate solution was introduced into one hundred times the volume of a one weight per volume percent polysorbate 20 aqueous solution stirred at 1,500 revolutions per minute using an overhead mixer equipped with an impeller blade. The resultant microparticles of felbamate were imaged using SEM. […] Under the same experimental conditions, Span 80 was substituted for polysorbate 20.
Felbamate was dissolved in glycerin heated above 120° C. to create a 5% weight per volume solution. The felbamate solution was introduced into one hundred times the volume of a one weight per volume percent polysorbate 20 aqueous solution stirred at 1,500 revolutions per minute using an overhead mixer equipped with an impeller blade. The resultant microparticles of felbamate were imaged using SEM.

[4] = injection of supersaturated solution into 37° C. phosphate buffered saline; type: physicochemical
Experimental: A supersaturated 10 weight per volume percent felbamate solution in PEG 300 was injected into 37° C. phosphate buffered saline. […] Additional felbamate supersaturated solution at the same concentration was added 10 microliters at a time without forming solid particles up to at least 50 microliters.

[5] = cited from earlier work; remark: listed apart in the source
CYP2C19 = CYP2C19 (Homo sapiens, UniProt P33261); settings: cited from earlier work
Chain of CYP2C19 (P33261 whole entry): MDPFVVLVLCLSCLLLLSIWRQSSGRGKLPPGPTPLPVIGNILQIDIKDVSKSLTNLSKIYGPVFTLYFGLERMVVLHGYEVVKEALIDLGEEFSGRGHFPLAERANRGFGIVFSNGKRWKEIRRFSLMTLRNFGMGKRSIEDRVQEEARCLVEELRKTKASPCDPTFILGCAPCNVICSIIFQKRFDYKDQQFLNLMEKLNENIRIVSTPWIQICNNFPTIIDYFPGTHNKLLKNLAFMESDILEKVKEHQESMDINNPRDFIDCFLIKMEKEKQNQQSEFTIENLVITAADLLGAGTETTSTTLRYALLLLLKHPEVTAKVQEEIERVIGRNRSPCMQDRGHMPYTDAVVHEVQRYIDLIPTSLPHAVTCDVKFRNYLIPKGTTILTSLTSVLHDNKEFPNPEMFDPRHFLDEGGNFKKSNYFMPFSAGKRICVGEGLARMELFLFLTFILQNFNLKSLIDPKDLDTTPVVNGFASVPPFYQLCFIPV

Row | SMILES | solubility in water [1] | time remained in solution ([2]; 10 w/v % in polyethylene glycol 300, heated above approx. 80° C., cooled to approx. 25°) | particle size by SEM ([3]; glycerin / polysorbate 20 microparticles compared with native powder) | particle form ([3]; same conditions, Span 80 substituted for polysorbate 20) | volume of additional supersaturated solution added without forming solid particles ([4]; 10 w/v % in PEG 300, added 10 microliters at a time to 37° C. phosphate buffered saline) | solid particles on injection ([4]; supersaturated 10 w/v % solution in PEG 300 injected into 37° C. phosphate buffered saline) | share of aplastic anemia cases that are fatal ([5]; chronic oral dosing) [%] | aplastic anemia after a single administration ([5]; single administration) | solution state after heating or cooling ([2]; PEG 300 / PEG 400 sample heated or cooled to 40° C., 4° C., and −20° C. for 30 minutes, then returned to 25° C.) | concentration of samples that remained in solution ([2]; polyethylene glycol 300 and polyethylene glycol 400, heated above 70° C., cooled to room temperature approx. 25°) [weight per volume percent] | time remained in solution ([2]; up to 10 w/v % in 65 v/v % PEG 300, 20 v/v % PEG 400, 10 v/v % propylene glycol, 5 v/v % PEG 600, approx. 25° C.) | time remained in solution ([2]; up to 10 w/v % in 65 v/v % PEG 300, 20 v/v % PEG 400, 15 v/v % propylene glycol, approx. 25° C.) | time remained in solution ([2]; up to approx. 12.5 weight per volume percent in polyethylene glycol 300 and polyethylene glycol 400, room temperature approx. 25°) | effect on CYP2C19 (CYP2C19)
1 | NC(=O)OCC(F)(COC(N)=O)c1ccccc1 [Fluorofelbamate] | less than one | at least 1 month | – | – | – | – | – | – | – | – | – | – | – | –
2 | NC(=O)OCC(COC(N)=O)c1ccccc1 [Felbamate] | less than one | – | hundreds of microns | formed crystals, which are unsuitable for injection | at least 50 microliters | No solid particles were observed | 30 | has not been shown to develop | remained in solution | ≤ 12.5 | at least 1 day | at least 1 day | at least eight | inhibitor
